Results reported in ChEMBL document CHEMBL1697821, “Development of a phospholipidosis database and predictive quantitative structure-activity relationship (QSAR) models” (Toxicol Mech Methods, 2008).

What follows are compounds tested on Phospholipidosis (assay: Literature-mined public compounds from Kruhlak et al phospholipidosis modelling dataset).

| Structure (SMILES) | Phospholipidosis |
| --- | --- |
| CN(Cc1cc(Br)cc(Br)c1N)C1CCCCC1 [BROMHEXINE] | Positive: weak inducer based on presence of foamy macrophages and cytoplasmic vacuolations |
| O=S(=O)(O)c1ccc(/N=N/c2cc(CO)c(O)c(/N=N/c3ccc(S(=O)(=O)O)c4ccccc34)c2O)c2ccccc12 [BROWN HT] | Negative: based on the absence of positive reported data from WMDD |
| CC(C)(C)c1ccc(CN2CCN(C(c3ccccc3)c3ccc(Cl)cc3)CC2)cc1 (configuration not stated) [BUCLIZINE] | Negative: based on the absence of positive reported data from WMDD |
| O=C(O)CCC(=O)c1ccc(C2CCCCC2)c(Cl)c1 [BUCLOXIC ACID] | Negative: based on the absence of positive reported data from WMDD |
| CC(C)(C)NCC(O)COc1ccccc1C#N (configuration not stated) [BUNITROLOL] | Negative: based on the absence of positive reported data from WMDD |
| Cc1ccc(Cl)c(OCC(O)CNC(C)(C)C)c1 (configuration not stated) [BUPRANOLOL] | Negative: based on the absence of positive reported data from WMDD |
| O=C1CC2(CCCC2)CC(=O)N1CCCCN1CCN(c2ncccn2)CC1 [BUSPIRONE] | Negative: confirmed by electron microscopy |
| CCCCN(CCCC)CCNc1nc(-c2ccccc2)no1 [BUTALAMINE] | Negative: based on the absence of positive reported data from WMDD |
| C=CCC1(CC(C)C)C(=O)NC(=O)NC1=O [BUTALBITAL] | Negative: based on the absence of positive reported data from WMDD |
| CCCC(=O)c1ccc2c(c1)N(CCCN1CCN(C)CC1)c1ccccc1S2 [BUTAPERAZINE] | Negative: based on the absence of positive reported data from WMDD |
| Oc1ccc2c(c1)[C@@]13CCCC[C@@]1(O)[C@@H](C2)N(CC1CCC1)CC3 [BUTORPHANOL] | Negative: based on the absence of positive reported data from WMDD |
| Cn1c(=O)c2c(ncn2C)n(C)c1=O [CAFFEINE] | Negative: confirmed by electron microscopy |
| C=C1/C(=C\C=C2/CCC[C@]3(C)[C@@H]([C@H](C)CCCC(C)(C)O)CC[C@@H]23)C[C@@H](O)C[C@@H]1O [CALCITRIOL] | Negative: based on the absence of positive reported data from WMDD |
| NC(=O)N1c2ccccc2C=Cc2ccccc21 [CARBAMAZEPINE] | Negative: confirmed by electron microscopy |
| CN1CC(O)C2=C/C(=N/NC(N)=O)C(=O)C=C21 (configuration not stated) [CARBAZOCHROME] | Negative: based on the absence of positive reported data from WMDD |
| CN(C)CCOC(c1ccc(Cl)cc1)c1ccccn1 (configuration not stated) [CARBINOXAMINE] | Negative: based on the absence of positive reported data from WMDD |
| N[C@@H](CSCC(=O)O)C(=O)O [CARBOCYSTEINE] | Negative: based on the absence of positive reported data from WMDD |
| CCC(Br)(CC)C(=O)NC(N)=O [CARBROMAL] | Negative: based on the absence of positive reported data from WMDD |
| CCCCNC(=O)NS(=O)(=O)c1ccc(N)cc1 [CARBUTAMIDE] | Negative: based on the absence of positive reported data from WMDD |
| O=NN(CCCl)C(=O)NCCCl [CARMUSTINE] | Negative: based on the absence of positive reported data from WMDD |
| C=CC1=C(C(=O)O)N2C(=O)[C@@H](NC(=O)/C(=N\OCC(=O)O)c3csc(N)n3)[C@H]2SC1 [CEFIXIME] | Negative: based on the absence of positive reported data from WMDD |

| Structure (SMILES) | Phospholipidosis |
| --- | --- |
| CO[C@@]1(NC(=O)C2SC(=C(C(N)=O)C(=O)O)S2)C(=O)N2C(C(=O)O)=C(CSc3nnnn3C)CS[C@@H]21 (some centres not stated) [CEFOTETAN] | Negative: based on the absence of positive reported data from WMDD |
| NC(=O)c1cc[n+](CC2=C(C(=O)O)N3C(=O)[C@@H](NC(=O)[C@@H](c4ccccc4)S(=O)(=O)[O-])[C@H]3SC2)cc1 [CEFSULODIN] | Negative: based on the absence of positive reported data from WMDD |
| CC(C)(O/N=C(\C(=O)N[C@@H]1C(=O)N2C(C(=O)[O-])=C(C[n+]3ccccc3)CS[C@H]12)c1csc(N)n1)C(=O)O [CEFTAZIDIME] | Negative: based on the absence of positive reported data from WMDD |
| O=C(Cn1cnnn1)N[C@@H]1C(=O)N2C(C(=O)O)=C(CSc3nncs3)CS[C@H]12 [CEFTEZOLE] | Negative: based on the absence of positive reported data from WMDD |
| CO/N=C(\C(=O)N[C@@H]1C(=O)N2C(C(=O)O)=C(CSc3nc(=O)c(=O)[nH]n3C)CS[C@H]12)c1csc(N)n1 [CEFTRIAXONE] | Negative: based on the absence of positive reported data from WMDD |
| CC(=O)OCC1=C(C(=O)O)N2C(=O)[C@@H](NC(=O)[C@H](N)c3ccccc3)[C@H]2SC1 [CEPHALOGLYCIN] | Negative: based on the absence of positive reported data from WMDD |
| O=C(N[C@H](CO)[C@H](O)c1ccc([N+](=O)[O-])cc1)C(Cl)Cl [CHLORAMPHENICOL] | Positive: weak inducer based on presence of foamy macrophages and cytoplasmic vacuolations |
| CN1CCN(C(c2ccccc2)c2ccc(Cl)cc2)CC1 (configuration not stated) [CHLORCYCLIZINE] | Positive: strong inducer confirmed by electron microscopy |
| CC(=O)O[C@]1(C(C)=O)CC[C@H]2[C@@H]3C=C(Cl)C4=CC(=O)CC[C@]4(C)[C@H]3CC[C@@]21C [CHLORMADINONE ACETATE] | Negative: based on the absence of positive reported data from WMDD |
| CC(=O)[C@@]1(O)CC[C@H]2[C@@H]3C=C(Cl)C4=CC(=O)CC[C@]4(C)[C@H]3CC[C@@]21C [CHLORMADINONE] | Negative: based on the absence of positive reported data from WMDD |
| CC(CCCN(CCCl)CCCl)Nc1ccnc2cc(Cl)ccc12 (configuration not stated) [CHLOROQUINE MUSTARD] | Positive: weak inducer based on presence of foamy macrophages and cytoplasmic vacuolations |
| CCN(CC)CCCC(C)Nc1ccnc2cc(Cl)ccc12 (configuration not stated) [CHLOROQUINE] | Positive: strong inducer confirmed by electron microscopy |
| NS(=O)(=O)c1cc2c(cc1Cl)N=CNS2(=O)=O [CHLOROTHIAZIDE] | Negative: based on the absence of positive reported data from WMDD |
| Oc1c(Cl)cc(Cl)c2cccnc12 [CHLOROXINE] | Negative: based on the absence of positive reported data from WMDD |
| CC(C)(N)Cc1ccc(Cl)cc1 [CHLORPHENTERMINE] | Positive: strong inducer confirmed by electron microscopy |
| CN(C)CCCN1c2ccccc2Sc2ccc(Cl)cc21 [CHLORPROMAZINE] | Positive: strong inducer confirmed by electron microscopy |
| CCCNC(=O)NS(=O)(=O)c1ccc(Cl)cc1 [CHLORPROPAMIDE] | Negative: based on the absence of positive reported data from WMDD |
| CN(C)[C@@H]1C(O)=C(C(N)=O)C(=O)[C@@]2(O)C(O)=C3C(=O)c4c(O)ccc(Cl)c4[C@@](C)(O)[C@H]3C[C@@H]12 [CHLORTETRACYCLINE] | Negative: confirmed by electron microscopy |
| CN/C(=N/CCSCc1nc[nH]c1C)NC#N [CIMETIDINE] | Negative: confirmed by electron microscopy |
| CC(C)(Oc1ccc(C2CC2(Cl)Cl)cc1)C(=O)O (configuration not stated) [CIPROFIBRATE] | Negative: confirmed by electron microscopy |
| CN(C)CCCC1(c2ccc(F)cc2)OCc2cc(C#N)ccc21 (configuration not stated) [CITALOPRAM] | Positive: strong inducer confirmed by electron microscopy |
